Legend:
[1] = compound: C1CC(C1)(C(=O)[O-])C(=O)[O-].N.N.[Pt+2] [Carboplatin]; conditions: max 10 µM
How it was run: (§1)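 Cancer cell lines were dosed for 72 hours (final DMSO typically 0.2%) after 24 hours at 37°C and 5% CO2 in 1536-well plates containing 7.5 μl DMEM/F12 or RPMI with 10% FBS. Viability came from CellTiter-Glo 2.0 luminescence, scaled between blank-well and DMSO-well means, and dose responses were fitted to a two-parameter logistic curve with a non-linear mixed effects model. The single-agent IC50 was obtained from this fit.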

[2] = compound: C1CN(CCC1(C(=O)N[C@@H](CCO)C2=CC=C(C=C2)Cl)N)C3=NC=NC4=C3C=CN4 [AZD5363]; conditions: max 10 µM
How it was run: as §1

[3] = compound: C=CCn1c(=O)c2cnc(Nc3ccc(N4CCN(C)CC4)cc3)nc2n1-c1cccc(C(C)(C)O)n1 [AZD1775]; conditions: max 3 µM
How it was run: as §1

[4] = compound: CC(=O)Nc1cccc(-n2c(=O)n(C3CC3)c(=O)c3c(Nc4ccc(I)cc4F)n(C)c(=O)c(C)c32)c1 [Trametinib]; conditions: max 1 µM
How it was run: as §1

[5] = compound: CC(=O)O[C@H]1C(=O)[C@@]2(C)[C@H]([C@H](OC(=O)c3ccccc3)[C@]3(O)C[C@H](OC(=O)[C@H](O)[C@@H](NC(=O)c4ccccc4)c4ccccc4)C(C)=C1C3(C)C)[C@]1(OC(C)=O)CO[C@@H]1C[C@@H]2O [Paclitaxel]; conditions: max 3 µM
How it was run: as §1

[6] = compound: CC(=O)c1c(C)c2cnc(Nc3ccc(N4CCNCC4)cn3)nc2n(C2CCCC2)c1=O [Palbociclib]; conditions: max 10 µM
How it was run: as §1

[7] = compound: CC(C)n1c(=O)n(C)c2cnc3cc(F)c(-c4ccc(OCCCN5CCCCC5)nc4)cc3c21 [AZD1390]; conditions: max 0.3 µM
How it was run: as §1

[8] = compound: CC1(C)CCC(CN2CCN(c3ccc(C(=O)NS(=O)(=O)c4ccc(NCC5CCOCC5)c([N+](=O)[O-])c4)c(Oc4cnc5[nH]ccc5c4)c3)CC2)=C(c2ccc(Cl)cc2)C1 [Venetoclax]; conditions: max 1 µM
How it was run: as §1

[9] = compound: CC1=C(C(=CC=C1)Cl)NC(=O)C2=CN=C(S2)NC3=CC(=NC(=N3)C)N4CCN(CC4)CCO [Dasatinib]; conditions: max 2 µM
How it was run: as §1

[10] = compound: CC1=CN2[C@@H](C1)C=NC3=CC(=C(C=C3C2=O)OC)OCCCCCOC4=C(C=C5C(=C4)N=C[C@@H]6CC(=CN6C5=O)C)OC [SG3199]; conditions: max 0.001 µM
How it was run: as §1

[11] = compound: CCN(CCO)CCCOc1ccc2c(Nc3cc(CC(=O)Nc4cccc(F)c4)[nH]n3)ncnc2c1 [AZD2811]; conditions: max 1 µM
How it was run: as §1

[12] = compound: CCc1c2c(nc3ccc(O)cc13)-c1cc3c(c(=O)n1C2)COC(=O)[C@]3(O)CC [SN-38]; conditions: max 0.3 µM
How it was run: as §1

[13] = compound: CN(C)CCCOc1ccc(-c2ccc3ncc4c(c3c2)n(C2CCOCC2)c(=O)n4C)cn1 [AZD0156]; conditions: max 3 µM
How it was run: as §1

[14] = compound: CN(CC[C@H](CSC1=CC=CC=C1)NC2=C(C=C(C=C2)S(=O)(=O)NC(=O)C3=CC=C(C=C3)N4CCC(CC4)[C@H](C5=CC=CC=C5C6=CC=C(C=C6)Cl)O)S(=O)(=O)C(F)(F)F)CCO [AZD4320]; conditions: max 1 µM
How it was run: as §1

[15] = compound: COc1cc(Nc2ncc3c(n2)-c2ccc(Cl)cc2C(c2c(F)cccc2OC)=NC3)ccc1C(=O)O [Alisertib]; conditions: max 10 µM
How it was run: as §1

[16] = compound: COc1cc([C@@H]2c3cc4c(cc3[C@@H](O[C@@H]3O[C@@H]5CO[C@@H](C)O[C@H]5[C@H](O)[C@H]3O)[C@H]3COC(=O)[C@H]23)OCO4)cc(OC)c1O [Etoposide]; conditions: max 10 µM
How it was run: as §1

[17] = compound: COc1cc2ncnc(Nc3ccc(F)c(Cl)c3)c2cc1OCCCN1CCOCC1 [Gefitinib]; conditions: max 10 µM
How it was run: as §1

[18] = compound: COc1cccc(OCCCN)c1-c1cc(Nc2cnc(C#N)cn2)n[nH]1 [Prexasertib]; conditions: max 1 µM
How it was run: as §1

[19] = compound: COc1cccc2c1C(=O)c1c(O)c3c(c(O)c1C2=O)C[C@@](O)(C(=O)CO)C[C@@H]3O[C@H]1C[C@H](N)[C@H](O)[C@H](C)O1 [Doxorubicin]; conditions: max 1 µM
How it was run: as §1

[20] = compound: COc1nnc2ccc(N3CCC(c4ccc(OCCN5CCN(C)C(=O)[C@H]5C)cc4)CC3)nn12 [AZD5153]; conditions: max 1 µM
How it was run: as §1

[21] = compound: CS(=O)(=O)CCNCc1ccc(-c2ccc3ncnc(Nc4ccc(OCc5cccc(F)c5)c(Cl)c4)c3c2)o1 [Lapatinib]; conditions: max 10 µM
How it was run: as §1

[22] = compound: C[C@@H](Nc1cc(F)cc(F)c1)c1cc(C(=O)N(C)C)cc2c(=O)cc(N3CCOCC3)oc12 [AZD8186]; conditions: max 10 µM
How it was run: as §1

[23] = compound: C[C@@H](Oc1cc(-c2cnn(C3CCNCC3)c2)cnc1N)c1c(Cl)ccc(F)c1Cl [Crizotinib]; conditions: max 10 µM
How it was run: as §1

[24] = compound: C[C@@H](c1ccc2nccn2c1)n1nnc2ncc(-c3cnn(C)c3)nc21 [Savolitinib]; conditions: max 1 µM
How it was run: as §1

[25] = compound: C[C@@H]1COCCN1C2=NC(=NC(=C2)C3(CC3)[S@](=N)(=O)C)C4=C5C=CNC5=NC=C4 [AZD6738]; conditions: max 10 µM
How it was run: as §1

[26] = compound: Cc1c2c(nn1C)CSCc1cc(n(C)n1)CSc1cc(c3ccccc3c1)OCCCc1c(C(=O)O)n(C)c3c-2c(Cl)ccc13 [AZD5991]; conditions: max 1 µM
How it was run: as §1

[27] = compound: Cc1cc2ncnn2cc1Nc1ncc2c(n1)n(C1CCOCC1)c(=O)n2C [AZD7648]; conditions: max 10 µM
How it was run: as §1

[28] = compound: Cc1nc(-c2cn3c(n2)-c2ccc(-c4cnn(C(C)(C)C(N)=O)c4)cc2OCC3)n(C(C)C)n1 [Taselisib]; conditions: max 10 µM
How it was run: as §1

[29] = compound: Cn1cnc2c(F)c(Nc3ccc(Br)cc3Cl)c(C(=O)NOCCO)cc21 [Selumetinib]; conditions: max 10 µM
How it was run: as §1

[30] = compound: N#Cc1cnc(Nc2cc(NC[C@H]3CNCCO3)c(C(F)(F)F)cn2)cn1 [SRA737]; conditions: max 10 µM
How it was run: as §1

[31] = compound: NC1(c2ccc(-c3nc4ccn5c(=O)[nH]nc5c4cc3-c3ccccc3)cc2)CCC1 [MK-2206]; conditions: max 10 µM
How it was run: as §1

[32] = compound: Nc1ccn([C@@H]2O[C@H](CO)[C@@H](O)C2(F)F)c(=O)n1 [Gemcitabine]; conditions: max 0.3 µM
How it was run: as §1

[33] = compound: O=C(Nc1ccc2[nH]nc(-c3ccncc3)c2c1)[C@@H]1CCN(CC(=O)N2CCN(c3ccc(-c4ncccn4)cc3)CC2)C1; conditions: max 5 µM
How it was run: as §1

[34] = compound: O=C(c1cc(Cc2n[nH]c(=O)c3ccccc23)ccc1F)N1CCN(C(=O)C2CC2)CC1 [Olaparib]; conditions: max 10 µM
How it was run: as §1

[35] = compound: O=c1[nH]cc(F)c(=O)[nH]1 [5-Fluorouracil]; conditions: max 20 µM
How it was run: as §1

Row | Cell Line | IC50, cell viability 72 h [1] [nM] | IC50, cell viability 72 h [2] [nM] | IC50, cell viability 72 h [3] [nM] | IC50, cell viability 72 h [4] [nM] | IC50, cell viability 72 h [5] [nM] | IC50, cell viability 72 h [6] [nM] | IC50, cell viability 72 h [7] [nM] | IC50, cell viability 72 h [8] [nM] | IC50, cell viability 72 h [9] [nM] | IC50, cell viability 72 h [10] [nM] | IC50, cell viability 72 h [11] [nM] | IC50, cell viability 72 h [12] [nM] | IC50, cell viability 72 h [13] [nM] | IC50, cell viability 72 h [14] [nM] | IC50, cell viability 72 h [15] [nM] | IC50, cell viability 72 h [16] [nM] | IC50, cell viability 72 h [17] [nM] | IC50, cell viability 72 h [18] [nM] | IC50, cell viability 72 h [19] [nM] | IC50, cell viability 72 h [20] [nM] | IC50, cell viability 72 h [21] [nM] | IC50, cell viability 72 h [22] [nM] | IC50, cell viability 72 h [23] [nM] | IC50, cell viability 72 h [24] [nM] | IC50, cell viability 72 h [25] [nM] | IC50, cell viability 72 h [26] [nM] | IC50, cell viability 72 h [27] [nM] | IC50, cell viability 72 h [28] [nM] | IC50, cell viability 72 h [29] [nM] | IC50, cell viability 72 h [30] [nM] | IC50, cell viability 72 h [31] [nM] | IC50, cell viability 72 h [32] [nM] | IC50, cell viability 72 h [33] [nM] | IC50, cell viability 72 h [34] [nM] | IC50, cell viability 72 h [35] [nM]
1 | SH-4 (Melanoma) | > 10000 | > 10000 | 1490 | 2.59 | 2550 | > 10000 | > 300 | > 1000 | > 2000 | > 1 | > 1000 | > 300 | > 3000 | > 1000 | > 10000 | > 10000 | > 10000 | 187 | > 1000 | 432 | > 10000 | > 10000 | > 10000 | > 1000 | > 10000 | > 1000 | > 10000 | > 10000 | 259 | > 10000 | > 10000 | > 300 | 111 | > 10000 | > 20000
2 | NCI-H28 (Mesothelioma) | > 10000 | > 10000 | > 3000 | > 1000 | 825 | > 10000 | > 300 | > 1000 | 304 | > 1 | > 1000 | > 300 | > 3000 | > 1000 | > 10000 | > 10000 | > 10000 | 327 | > 1000 | > 1000 | > 10000 | > 10000 | > 10000 | > 1000 | > 10000 | > 1000 | > 10000 | > 10000 | > 10000 | > 10000 | > 10000 | 140 | > 5000 | > 10000 | > 20000
3 | SU-DHL-6 (B-Cell Non-Hodgkin's Lymphoma) | > 10000 | 301 | 676 | > 1000 | 4.04 | 3570 | > 300 | 244 | 17.8 | > 1 | > 1000 | 8.04 | 2970 | 107 | 1090 | 1260 | > 10000 | > 1000 | 181 | 48.9 | 4980 | 228 | 2840 | > 1000 | > 10000 | 32.6 | > 10000 | 14.4 | > 10000 | > 10000 | 569 | 36.4 | > 5000 | > 10000 | > 20000
4 | HMV-II (Melanoma) | > 10000 | > 10000 | 1160 | 8.78 | 310 | > 10000 | > 300 | > 1000 | > 2000 | > 1 | > 1000 | 127 | > 3000 | > 1000 | > 10000 | > 10000 | > 10000 | > 1000 | 790 | 463 | > 10000 | > 10000 | > 10000 | > 1000 | > 10000 | > 1000 | > 10000 | 5060 | 606 | > 10000 | > 10000 | 139 | 502 | > 10000 | > 20000
5 | EN (Endometrial Carcinoma) | > 10000 | 5500 | 770 | > 1000 | 798 | > 10000 | > 300 | > 1000 | > 2000 | > 1 | 947 | > 300 | > 3000 | > 1000 | 3670 | > 10000 | > 10000 | 41.3 | > 1000 | > 1000 | > 10000 | > 10000 | > 10000 | > 1000 | 8640 | > 1000 | > 10000 | 2730 | > 10000 | > 10000 | 8080 | > 300 | > 5000 | > 10000 | > 20000
